# Columns and labels:
# Fyn = Fyn (Homo sapiens, UniProt P06241); test: kinase screen for inhibition or activation; type: biochemical; conditions: 10 μM
# Method: (§1) A kinase screen was conducted in which Compound 102 (10 μM) was screened against 49 kinases for inhibition or activation. Any kinase that was activated or inhibited by at least 20% was considered to be a significant effect. Of the 49 kinases screened, Lyn kinase was activated by 51%. In a repeat experiment, Lyn kinase activity was increased by 57%.
# CDK2/cyclinA = CDK2/cyclinA (Homo sapiens, UniProt P24941); test: kinase screen for inhibition or activation; type: biochemical; conditions: 10 μM
# Method: as §1
# MAPK14 (P38) = MAPK14 (P38) (Homo sapiens, UniProt Q16539); test: kinase screen for inhibition or activation; type: biochemical; conditions: 10 μM
# Method: as §1
# PKCb2 = PKCb2 (Homo sapiens, UniProt P05771); test: kinase screen for inhibition or activation; type: biochemical; conditions: 10 μM
# Method: as §1
# MSK1 = MSK1 (Homo sapiens, UniProt O75582); test: kinase screen for inhibition or activation; type: biochemical; conditions: 10 μM
# Method: as §1
# Abl = Abl (Homo sapiens, UniProt P00519); test: kinase screen for inhibition or activation; type: biochemical; conditions: 10 μM
# Method: as §1
# PDK1 = PDK1 (Homo sapiens, UniProt O15530); test: kinase screen for inhibition or activation; type: biochemical; conditions: 10 μM
# Method: as §1
# MAPKAP5 = MAPKAP5 (Homo sapiens, UniProt Q8IW41); test: kinase screen for inhibition or activation; type: biochemical; conditions: 10 μM
# Method: as §1
# IRAK4 = IRAK4 (Homo sapiens, UniProt Q9NWZ3); test: kinase screen for inhibition or activation; type: biochemical; conditions: 10 μM
# Method: as §1
# MST2 = MST2 (Homo sapiens, UniProt Q13188); test: kinase screen for inhibition or activation; type: biochemical; conditions: 10 μM
# Method: as §1
# Akt1 = Akt1 (Homo sapiens, UniProt P31749); test: kinase screen for inhibition or activation; type: biochemical; conditions: 10 μM
# Method: as §1
# GSK3b = GSK3b (Homo sapiens, UniProt P49841); test: kinase screen for inhibition or activation; type: biochemical; conditions: 10 μM
# Method: as §1
# IGF1R = IGF1R (Homo sapiens, UniProt P08069); test: kinase screen for inhibition or activation; type: biochemical
# Method: as §1
# MET = MET (Homo sapiens, UniProt P08581); test: kinase screen for inhibition or activation; type: biochemical; conditions: 10 μM
# Method: as §1
# ROCK2 = ROCK2 (Homo sapiens, UniProt O75116); test: kinase screen for inhibition or activation; type: biochemical; conditions: 10 μM
# Method: as §1
# CK1d = CK1d (Homo sapiens, UniProt P48730); test: kinase screen for inhibition or activation; type: biochemical; conditions: 10 μM
# Method: as §1
# MAPK1 = MAPK1 (Homo sapiens, UniProt P28482); test: kinase screen for inhibition or activation; type: biochemical; conditions: 10 μM
# Method: as §1
# IKKb = IKKb (Homo sapiens, UniProt O14920); test: kinase screen for inhibition or activation; type: biochemical; conditions: 10 μM
# Method: as §1
# CHK1 = CHK1 (Homo sapiens, UniProt O14757); test: kinase screen for inhibition or activation; type: biochemical; conditions: 10 μM
# Method: as §1
# EphA2 = EphA2 (Homo sapiens, UniProt P29317); test: kinase screen for inhibition or activation; type: biochemical; conditions: 10 μM
# Method: as §1
# PKD2 = PKD2 (Homo sapiens, UniProt Q9BZL6); test: kinase screen for inhibition or activation; type: biochemical; conditions: 10 μM
# Method: as §1
# p70S6K = test: kinase screen for inhibition or activation; type: biochemical; conditions: 10 μM; inhibition
# Method: as §1
# cKit = cKit (Homo sapiens, UniProt P10721); test: kinase screen for inhibition or activation; type: biochemical; conditions: 10 μM
# Method: as §1
# SGK1 = SGK1 (Homo sapiens, UniProt O00141); test: kinase screen for inhibition or activation; type: biochemical; conditions: 10 μM
# Method: as §1
# MAPK3 (p38) = test: kinase screen for inhibition or activation; type: biochemical; conditions: 10 μM
# Method: as §1
# BTK = BTK (Homo sapiens, UniProt Q06187); test: kinase screen for inhibition or activation; type: biochemical; conditions: 10 μM
# Method: as §1
# CaMK2a = CaMK2a (Homo sapiens, UniProt Q9UQM7); test: kinase screen for inhibition or activation; type: biochemical; conditions: 10 μM
# Method: as §1
# PKCz = PKCz (Homo sapiens, UniProt Q05513); test: kinase screen for inhibition or activation; type: biochemical; conditions: 10 μM
# Method: as §1
# Lyn (h) = Lyn (h) (Homo sapiens, UniProt P07948); test: Lyn kinase activation, pre-incubation then standard radiometric assay; type: biochemical
# Lyn = Lyn (Homo sapiens, UniProt P07948); conditions: 100 μM; ATP 0 to 800 μM
# Chain of Lyn (P07948 whole entry): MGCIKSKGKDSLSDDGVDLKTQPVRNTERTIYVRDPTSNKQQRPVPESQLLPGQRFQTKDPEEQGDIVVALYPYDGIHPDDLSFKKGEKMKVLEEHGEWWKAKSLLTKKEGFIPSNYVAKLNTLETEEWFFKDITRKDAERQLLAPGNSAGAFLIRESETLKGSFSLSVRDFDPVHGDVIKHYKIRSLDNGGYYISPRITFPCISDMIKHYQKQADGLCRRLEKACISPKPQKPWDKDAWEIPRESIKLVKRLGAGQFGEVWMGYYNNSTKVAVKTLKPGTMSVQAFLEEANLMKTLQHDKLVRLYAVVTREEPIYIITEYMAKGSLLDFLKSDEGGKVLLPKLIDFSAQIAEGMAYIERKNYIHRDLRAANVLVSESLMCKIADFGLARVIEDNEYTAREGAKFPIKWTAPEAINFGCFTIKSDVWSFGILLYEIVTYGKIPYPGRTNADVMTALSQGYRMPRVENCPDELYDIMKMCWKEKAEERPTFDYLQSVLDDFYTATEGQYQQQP
# Chain of Lyn (h) (P07948 whole entry): as above
# Chain of IGF1R (P08069 31-1367, species assumed): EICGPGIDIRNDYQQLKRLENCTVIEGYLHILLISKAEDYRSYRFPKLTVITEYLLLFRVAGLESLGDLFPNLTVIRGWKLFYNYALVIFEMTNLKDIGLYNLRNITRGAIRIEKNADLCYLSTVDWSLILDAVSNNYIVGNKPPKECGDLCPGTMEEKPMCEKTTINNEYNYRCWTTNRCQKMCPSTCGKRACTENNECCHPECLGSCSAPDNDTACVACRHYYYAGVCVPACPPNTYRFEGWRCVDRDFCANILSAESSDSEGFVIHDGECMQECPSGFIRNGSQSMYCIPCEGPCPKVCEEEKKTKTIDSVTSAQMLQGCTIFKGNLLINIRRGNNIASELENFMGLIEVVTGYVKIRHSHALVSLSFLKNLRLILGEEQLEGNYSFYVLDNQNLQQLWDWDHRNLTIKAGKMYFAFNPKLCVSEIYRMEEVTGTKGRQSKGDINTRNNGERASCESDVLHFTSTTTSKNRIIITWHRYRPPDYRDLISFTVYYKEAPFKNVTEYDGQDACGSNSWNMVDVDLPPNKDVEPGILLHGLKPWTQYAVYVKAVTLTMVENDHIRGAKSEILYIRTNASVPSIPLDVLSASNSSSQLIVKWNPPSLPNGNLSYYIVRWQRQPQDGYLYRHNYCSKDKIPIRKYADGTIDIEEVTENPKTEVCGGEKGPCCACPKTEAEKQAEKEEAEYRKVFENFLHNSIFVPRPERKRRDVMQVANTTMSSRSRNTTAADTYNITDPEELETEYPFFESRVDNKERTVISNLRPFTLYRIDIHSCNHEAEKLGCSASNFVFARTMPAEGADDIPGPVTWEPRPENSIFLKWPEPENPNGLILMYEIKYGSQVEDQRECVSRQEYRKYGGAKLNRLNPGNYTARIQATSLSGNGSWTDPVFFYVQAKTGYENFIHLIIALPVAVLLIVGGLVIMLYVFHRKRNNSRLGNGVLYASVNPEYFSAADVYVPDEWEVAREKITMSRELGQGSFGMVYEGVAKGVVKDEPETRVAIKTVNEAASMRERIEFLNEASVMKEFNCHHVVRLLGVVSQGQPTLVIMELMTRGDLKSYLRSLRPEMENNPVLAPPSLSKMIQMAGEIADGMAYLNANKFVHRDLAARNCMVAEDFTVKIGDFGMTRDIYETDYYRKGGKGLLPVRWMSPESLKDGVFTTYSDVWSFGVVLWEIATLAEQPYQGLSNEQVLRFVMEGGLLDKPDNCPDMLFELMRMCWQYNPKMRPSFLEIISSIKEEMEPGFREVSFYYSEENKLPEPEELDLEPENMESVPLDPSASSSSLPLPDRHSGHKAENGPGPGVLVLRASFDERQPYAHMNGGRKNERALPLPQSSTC
# Chain of MAPKAP5 (Q8IW41 whole entry): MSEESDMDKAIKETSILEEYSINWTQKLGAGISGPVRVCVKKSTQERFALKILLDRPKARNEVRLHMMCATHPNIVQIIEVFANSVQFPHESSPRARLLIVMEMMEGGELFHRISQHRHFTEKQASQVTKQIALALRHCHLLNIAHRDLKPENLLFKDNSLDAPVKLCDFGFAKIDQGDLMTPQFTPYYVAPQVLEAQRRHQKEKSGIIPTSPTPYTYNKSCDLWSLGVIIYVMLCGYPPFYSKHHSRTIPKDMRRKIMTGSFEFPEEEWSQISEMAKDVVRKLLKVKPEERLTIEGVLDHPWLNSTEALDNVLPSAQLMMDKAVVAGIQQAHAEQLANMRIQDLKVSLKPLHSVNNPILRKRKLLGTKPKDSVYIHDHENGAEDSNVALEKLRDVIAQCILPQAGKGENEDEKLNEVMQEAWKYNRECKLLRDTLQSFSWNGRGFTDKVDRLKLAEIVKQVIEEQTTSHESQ
# Chain of MAPK14 (P38) (Q16539 whole entry, species assumed): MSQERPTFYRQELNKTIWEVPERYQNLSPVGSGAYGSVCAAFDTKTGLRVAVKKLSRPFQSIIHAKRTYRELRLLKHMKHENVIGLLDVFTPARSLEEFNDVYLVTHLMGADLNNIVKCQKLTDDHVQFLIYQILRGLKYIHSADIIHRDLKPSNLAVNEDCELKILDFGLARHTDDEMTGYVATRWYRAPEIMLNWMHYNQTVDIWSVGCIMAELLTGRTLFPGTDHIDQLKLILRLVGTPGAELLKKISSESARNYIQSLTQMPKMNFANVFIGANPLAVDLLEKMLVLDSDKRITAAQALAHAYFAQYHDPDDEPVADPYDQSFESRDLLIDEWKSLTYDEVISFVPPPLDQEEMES
# Chain of Fyn (P06241 whole entry, species assumed): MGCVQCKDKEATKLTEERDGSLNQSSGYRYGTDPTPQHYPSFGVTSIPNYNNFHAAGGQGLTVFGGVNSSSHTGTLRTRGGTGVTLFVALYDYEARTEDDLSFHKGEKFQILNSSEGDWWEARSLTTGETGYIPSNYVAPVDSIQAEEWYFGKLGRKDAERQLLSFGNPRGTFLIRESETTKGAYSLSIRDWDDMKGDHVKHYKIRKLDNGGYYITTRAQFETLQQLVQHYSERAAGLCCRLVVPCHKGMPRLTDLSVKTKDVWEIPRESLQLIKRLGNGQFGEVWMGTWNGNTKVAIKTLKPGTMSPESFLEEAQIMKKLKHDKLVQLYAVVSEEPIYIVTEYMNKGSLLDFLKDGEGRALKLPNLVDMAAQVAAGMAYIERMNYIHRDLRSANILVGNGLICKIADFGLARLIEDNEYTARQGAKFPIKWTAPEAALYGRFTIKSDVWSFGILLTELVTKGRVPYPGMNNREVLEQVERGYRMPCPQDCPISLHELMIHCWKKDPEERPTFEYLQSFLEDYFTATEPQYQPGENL
# Chain of BTK (Q06187 whole entry, species assumed): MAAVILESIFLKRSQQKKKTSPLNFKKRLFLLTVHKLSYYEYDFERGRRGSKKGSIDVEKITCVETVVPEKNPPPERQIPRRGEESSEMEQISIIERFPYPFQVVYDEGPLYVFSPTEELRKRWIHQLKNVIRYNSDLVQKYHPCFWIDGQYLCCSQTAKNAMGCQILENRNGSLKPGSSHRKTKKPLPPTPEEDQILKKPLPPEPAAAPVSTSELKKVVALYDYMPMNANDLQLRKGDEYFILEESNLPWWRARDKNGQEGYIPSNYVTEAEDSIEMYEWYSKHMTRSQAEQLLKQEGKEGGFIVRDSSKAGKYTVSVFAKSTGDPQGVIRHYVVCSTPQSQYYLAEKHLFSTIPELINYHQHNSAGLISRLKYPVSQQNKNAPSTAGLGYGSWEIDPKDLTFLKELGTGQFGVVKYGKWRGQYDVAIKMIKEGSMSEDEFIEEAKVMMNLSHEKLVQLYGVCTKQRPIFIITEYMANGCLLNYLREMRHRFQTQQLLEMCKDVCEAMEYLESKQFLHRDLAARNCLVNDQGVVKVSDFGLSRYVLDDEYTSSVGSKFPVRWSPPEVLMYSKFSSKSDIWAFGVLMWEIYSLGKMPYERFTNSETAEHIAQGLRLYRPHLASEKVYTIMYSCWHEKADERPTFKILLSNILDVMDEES
# Chain of PDK1 (O15530 whole entry): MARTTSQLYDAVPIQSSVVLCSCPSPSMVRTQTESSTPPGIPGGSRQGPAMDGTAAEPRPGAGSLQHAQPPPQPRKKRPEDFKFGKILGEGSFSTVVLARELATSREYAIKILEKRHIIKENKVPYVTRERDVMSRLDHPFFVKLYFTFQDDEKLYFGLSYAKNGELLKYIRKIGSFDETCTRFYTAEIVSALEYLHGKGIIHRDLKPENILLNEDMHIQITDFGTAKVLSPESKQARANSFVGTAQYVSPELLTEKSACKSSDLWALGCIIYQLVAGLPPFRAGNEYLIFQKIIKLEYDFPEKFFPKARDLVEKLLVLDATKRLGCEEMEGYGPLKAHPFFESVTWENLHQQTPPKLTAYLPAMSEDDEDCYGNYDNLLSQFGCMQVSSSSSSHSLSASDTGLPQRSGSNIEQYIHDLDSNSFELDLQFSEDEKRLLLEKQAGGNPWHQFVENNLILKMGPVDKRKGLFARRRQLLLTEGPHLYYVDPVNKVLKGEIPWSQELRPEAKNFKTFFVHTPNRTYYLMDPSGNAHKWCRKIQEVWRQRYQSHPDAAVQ
# Chain of IRAK4 (Q9NWZ3 whole entry, species assumed): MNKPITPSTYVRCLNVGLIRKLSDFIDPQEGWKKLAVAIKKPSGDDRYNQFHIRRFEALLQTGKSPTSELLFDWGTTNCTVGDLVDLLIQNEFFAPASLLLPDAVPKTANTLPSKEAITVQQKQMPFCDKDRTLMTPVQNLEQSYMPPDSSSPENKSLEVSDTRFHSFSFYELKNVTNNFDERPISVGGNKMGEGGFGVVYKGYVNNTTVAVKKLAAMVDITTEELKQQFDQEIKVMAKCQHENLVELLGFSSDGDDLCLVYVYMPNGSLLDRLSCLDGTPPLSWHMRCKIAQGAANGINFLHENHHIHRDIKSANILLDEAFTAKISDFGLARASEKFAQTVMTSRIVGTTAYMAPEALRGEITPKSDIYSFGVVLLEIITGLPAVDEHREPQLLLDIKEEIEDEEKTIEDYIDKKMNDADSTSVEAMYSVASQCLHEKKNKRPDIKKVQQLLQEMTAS
smiles,measurement,setting,value
Cc1cccc(Oc2cnc(=O)[nH]c2)c1 [Compound 102],COMPOUND 102 ACTIVITY (% KINASE ACTIVITY),Fyn,−4.64%
same,COMPOUND 102 ACTIVITY (% KINASE ACTIVITY),CDK2/cyclinA,−3.93%
same,COMPOUND 102 ACTIVITY (% KINASE ACTIVITY),MAPK14 (P38),1.74%
same,COMPOUND 102 ACTIVITY (% KINASE ACTIVITY),PKCb2,−1.12%
same,COMPOUND 102 ACTIVITY (% KINASE ACTIVITY),MSK1,1.55%
same,COMPOUND 102 ACTIVITY (% KINASE ACTIVITY),Abl,−4.04%
same,COMPOUND 102 ACTIVITY (% KINASE ACTIVITY),PDK1,−2.63%
same,COMPOUND 102 ACTIVITY (% KINASE ACTIVITY),MAPKAP5,0.79%
same,COMPOUND 102 ACTIVITY (% KINASE ACTIVITY),IRAK4,2.25%
same,COMPOUND 102 ACTIVITY (% KINASE ACTIVITY),MST2,4.59%
same,COMPOUND 102 ACTIVITY (% KINASE ACTIVITY),Akt1,1.51%
same,COMPOUND 102 ACTIVITY (% KINASE ACTIVITY),GSK3b,2.47%
same,COMPOUND 102 ACTIVITY (% KINASE ACTIVITY),"IGF1R; IGF1R, 10 μM",−20.18%
same,inhibition at 10 µM,"IGF1R; inhibition, read-out: insulin-like growth factor receptor activity inhibited by",20.1%
same,COMPOUND 102 ACTIVITY (% KINASE ACTIVITY),MET,9.88%
same,COMPOUND 102 ACTIVITY (% KINASE ACTIVITY),ROCK2,−3.05%
same,COMPOUND 102 ACTIVITY (% KINASE ACTIVITY),CK1d,−1.5%
same,COMPOUND 102 ACTIVITY (% KINASE ACTIVITY),MAPK1,0.6%
same,COMPOUND 102 ACTIVITY (% KINASE ACTIVITY),IKKb,−6.26%
same,COMPOUND 102 ACTIVITY (% KINASE ACTIVITY),CHK1,0.87%
same,COMPOUND 102 ACTIVITY (% KINASE ACTIVITY),EphA2,1.03%
same,COMPOUND 102 ACTIVITY (% KINASE ACTIVITY),PKD2,−10.34%
same,p70S6K inhibited by,p70S6K,24.3%
same,COMPOUND 102 ACTIVITY (% KINASE ACTIVITY),cKit,18.79%
same,COMPOUND 102 ACTIVITY (% KINASE ACTIVITY),SGK1,−19.24%
same,COMPOUND 102 ACTIVITY (% KINASE ACTIVITY),MAPK3 (p38),−6.05%
same,COMPOUND 102 ACTIVITY (% KINASE ACTIVITY),BTK,10%
same,COMPOUND 102 ACTIVITY (% KINASE ACTIVITY),CaMK2a,0.08%
same,COMPOUND 102 ACTIVITY (% KINASE ACTIVITY),PKCz,9.05%
same,activity of Lyn kinase (h) relative to the DMSO control,"Lyn (h); 100 μM, 30 minutes pre-incubation on ice, 10 μM ATP, 40 minutes at room temperature",more than 3 fold
same,concentration dependence of Lyn kinase (h) activity,"Lyn (h); 1, 3, 10, 30 and 100 μM",increased with Compound 102 concentration in a dose-dependent manner
same,EC50,"Lyn (h); 30 minutes pre-incubation on ice, 10 μM ATP",650 nM
same,effect on the Km for ATP,Lyn,did not alter the Km for ATP
same,increase of the Vmax of Lyn kinase,Lyn,3 fold

# — patent US20100152215A1, “METHODS OF IDENTIFYING ACTIVATORS OF LYN KINASE” (MELIOR PHARMACEUTICALS I, INC., priority 2007, published 2010)
